Experimental findings from patent publication US20070128217A1 (priority 2003, published 2007) are described below.

Experiment [1] relates to antibodies in sera from SARS patients (sera 1a, 1b, 2, 6, 37, 62, London, SARS-yellow, SARS-green). The experiment is classed as binding, human. On the set-up: Binding of serum 6 to linear peptides of protein X1 of SARS-CoV Urbani / Binding of serum 37 to linear peptides of protein X1 of SARS-CoV Urbani / Binding of serum 6 to looped/cyclic peptide (PEPSCAN-ELISA) / Binding of serum 37 to looped/cyclic peptide (PEPSCAN-ELISA) / Binding of serum 37 to looped/cyclic peptides of protein X1 of SARS-CoV Urbani / Binding of serum 6 to linear peptides of protein X2 / Binding of serum 37 to linear peptides of protein X2 / Binding of serum 37 to looped/cyclic peptides of protein X2 of SARS-CoV Urbani / Binding of serum 6 to linear peptides of protein M of SARS-CoV Urbani / Binding of serum 37 to linear peptides of protein M of SARS-CoV Urbani / Binding of serum 6 to looped/cyclic peptides of protein M of SARS-CoV Urbani / Binding of serum 37 to looped/cyclic peptides of protein M of SARS-CoV Urbani / Binding of serum 6 to linear peptides of protein X3 of SARS-CoV Urbani / Binding of serum 37 to linear peptides of protein X3 of SARS-CoV Urbani / Binding of serum 37 to looped/cyclic peptides of protein X3 of SARS-CoV Urbani / Binding of serum 6 to linear peptides of protein X4 of SARS-CoV Urbani / Binding of serum 37 to linear peptides of protein X4 of SARS-CoV Urbani / Binding of serum 37 to looped/cyclic peptides of protein X4 of SARS-CoV Urbani / Binding of serum 6 to linear peptides of protein X5 of SARS-CoV Urbani / Binding of serum 37 to linear peptides of protein X5 of SARS-CoV Urbani / Binding of serum 37 to looped/cyclic peptides of protein X5 of SARS-CoV Urbani / Binding of serum 6 to linear peptides of protein N of SARS-CoV Urbani / Binding of serum 37 to linear peptides of protein N of SARS-CoV Urbani / Binding of serum 6 to linear peptide (PEPSCAN-ELISA) / Binding of serum 1a to looped/cyclic peptides of protein N of SARS-CoV Urbani / Binding of serum 1b to looped/cyclic peptides of protein N of SARS-CoV Urbani / Binding of serum 2 to looped/cyclic peptides of protein N of SARS-CoV Urbani / Binding of serum 6 to looped/cyclic peptides of protein N of SARS-CoV Urbani / Binding of serum 37 to looped/cyclic peptides of protein N of SARS-CoV Urbani / Binding of serum 62 to looped/cyclic peptides of protein N of SARS-CoV Urbani / Binding of serum London to looped/cyclic peptides of protein N of SARS-CoV Urbani / Binding of serum SARS-green to looped/cyclic peptides of protein N of SARS-CoV Urbani: unit not given here.

Experiment [2] has as its system control sera (pooled serum of ten healthy LUMC hospital workers; commercial negative donor pooled serum from the Dutch bloodbank). The experiment is classed as binding, human. Set-up: Binding of Control serum LUMC to linear peptides / Binding of Control serum Blood-bank to linear peptides / Binding of Control serum LUMC to looped peptides / Binding of Control Serum Blood-Bank to Looped peptides / Binding of Control serum LUMC to linear peptides of the protein M of SARS-CoV Urbani / Binding of Control serum Blood-bank to linear peptides of the protein M of SARS-CoV Urbani / Binding of Control serum LUMC to looped peptides of the protein M of SARS-CoV Urbani / Binding of Control Serum Blood-Bank to Looped peptides of the protein M of SARS-CoV Urbani: unit not given here.

For experiment [3], the system named is rabbit serum obtained by immunizing a rabbit with the SARS-CoV strain Frankfurt 1. The experiment is classed as binding. On the set-up: Binding of a rabbit serum to linear peptides / Binding of a rabbit serum to looped peptides / Rabbit serum linear peptides / Rabbit serum looped peptides / Binding of a rabbit serum to linear peptides of protein N of SARS-CoV Urbani (Rabbit serum linear peptides) / Binding of a rabbit serum to looped/cyclic peptides of protein N of SARS-CoV Urbani (Rabbit serum looped peptides): unit not given here.

Take LYKGFQFICNLLLLF: in experiment [1], the “Binding of serum 1a to linear peptides of protein X1 of SARS-CoV Urbani” value stood at 0.6, the “Binding of serum 1a to looped/cyclic peptide (PEPSCAN-ELISA)” value turned out to be 0.5, the “Binding of serum 1b to linear peptides of protein X1 of SARS-CoV Urbani” value amounted to 0.5 and the “Binding of serum 1b to looped/cyclic peptide (PEPSCAN-ELISA)” value is 0.3. In addition, in experiment [1], the “Binding of serum 2 to linear peptides of protein X1 of SARS-CoV Urbani” value came to 0.5, the “Binding of serum 2 to looped/cyclic peptide (PEPSCAN-ELISA)” value was determined as 0.3, the “Binding of serum 6 to linear peptides of protein X1 of SARS-CoV Urbani” value was found to be 0.4 and the “Binding of serum 6 to looped/cyclic peptide (PEPSCAN-ELISA)” value is reported as 1.5. Also, in experiment [1], the “Binding of serum 37 to linear peptides of protein X1 of SARS-CoV Urbani” value came out at 0.5, the “Binding of serum 37 to looped/cyclic peptide (PEPSCAN-ELISA)” value came to 0.4, the “Binding of serum 62 to linear peptides of protein X1 of SARS-CoV Urbani” value was found to be 0.4 and the “Binding of serum 62 to looped/cyclic peptide (PEPSCAN-ELISA)” value was 0.5. In experiment [1], the “Binding of serum London to linear peptides of protein X1 of SARS-CoV Urbani” value came out at 0.2, the “Binding of serum London to looped/cyclic peptide (PEPSCAN-ELISA)” value was 1.7, the “Binding of serum SARS-green to linear peptides of protein X1 of SARS-CoV Urbani” value came out at 0.2 and the “Binding of serum SARS-green to looped/cyclic peptide (PEPSCAN-ELISA)” value worked out at 0.2. In experiment [1], the “Binding of serum SARS-yellow to linear peptides of protein X1 of SARS-CoV Urbani” value was 0.4 and the “Binding of serum SARS-yellow to looped/cyclic peptide (PEPSCAN-ELISA)” value is recorded as 0.3. Further, in experiment [2], the “Binding of Control Serum Blood-Bank to Looped peptides” value turned out to be 0.4, the “Binding of Control serum Blood-bank to linear peptides” value is 0.5, the “Binding of Control serum LUMC to linear peptides” value turned out to be 0.5 and the “Binding of Control serum LUMC to looped peptides” value amounted to 0.6. In addition, in experiment [3], the “Binding of a rabbit serum to linear peptides” value amounted to 0.2 and the “Binding of a rabbit serum to looped peptides” value turned out to be 0.3.
As to LYLYALIYFLQCINA, in experiment [1], the “Binding of serum 1a to linear peptides of protein X1 of SARS-CoV Urbani” value came to 0.7, the “Binding of serum 1a to looped/cyclic peptide (PEPSCAN-ELISA)” value worked out at 0.3, the “Binding of serum 1b to linear peptides of protein X1 of SARS-CoV Urbani” value was determined as 0.5 and the “Binding of serum 1b to looped/cyclic peptide (PEPSCAN-ELISA)” value is 0.3. For the same sequence, in experiment [1], the “Binding of serum 2 to linear peptides of protein X1 of SARS-CoV Urbani” value worked out at 0.4, the “Binding of serum 2 to looped/cyclic peptide (PEPSCAN-ELISA)” value turned out to be 0.2, the “Binding of serum 6 to linear peptides of protein X1 of SARS-CoV Urbani” value is listed as 0.3 and the “Binding of serum 6 to looped/cyclic peptide (PEPSCAN-ELISA)” value was 0.3. In experiment [1], the “Binding of serum 37 to linear peptides of protein X1 of SARS-CoV Urbani” value was found to be 0.5, the “Binding of serum 37 to looped/cyclic peptide (PEPSCAN-ELISA)” value stood at 0.4, the “Binding of serum 62 to linear peptides of protein X1 of SARS-CoV Urbani” value was determined as 0.5 and the “Binding of serum 62 to looped/cyclic peptide (PEPSCAN-ELISA)” value was 0.4. Also, in experiment [1], the “Binding of serum London to linear peptides of protein X1 of SARS-CoV Urbani” value was 0.2, the “Binding of serum London to looped/cyclic peptide (PEPSCAN-ELISA)” value was determined as 0.2, the “Binding of serum SARS-green to linear peptides of protein X1 of SARS-CoV Urbani” value is listed as 0.2 and the “Binding of serum SARS-green to looped/cyclic peptide (PEPSCAN-ELISA)” value was found to be 0.2. Also, in experiment [1], the “Binding of serum SARS-yellow to linear peptides of protein X1 of SARS-CoV Urbani” value was determined as 0.5 and the “Binding of serum SARS-yellow to looped/cyclic peptide (PEPSCAN-ELISA)” value amounted to 0.3. For the same sequence, in experiment [2], the “Binding of Control Serum Blood-Bank to Looped peptides” value was 0.5, the “Binding of Control serum Blood-bank to linear peptides” value is on record as 0.5, the “Binding of Control serum LUMC to linear peptides” value stood at 0.5 and the “Binding of Control serum LUMC to looped peptides” value was 0.4. Moreover, in experiment [3], the “Binding of a rabbit serum to linear peptides” value is 0.1 and the “Binding of a rabbit serum to looped peptides” value is 0.5.
